Reference: PMC3828927, “Heterotropic Effect of β-lactam Antibiotics on Antioxidant Property of Haptoglobin (2-2)-Hemoglobin Complex” (Iranian Journal of Pharmaceutical Research : IJPR, 2011)

Molecular target: T1, Hp (2-2)-Hb complex (Homo sapiens, UniProt P68871+P69905)
T1 construct: gene HBA1; with Haptoglobin
Assay: guaiacol peroxidase assay, A470, clearance plot
Assay type: biochemical
Conditions: activator (heterotropic); binding site not shown; varied H2O2, 0.03 M guaiacol, 64 nM complex, 50 mM phosphate pH 7.5, 37 C

T1 sequence (P69905 2-142): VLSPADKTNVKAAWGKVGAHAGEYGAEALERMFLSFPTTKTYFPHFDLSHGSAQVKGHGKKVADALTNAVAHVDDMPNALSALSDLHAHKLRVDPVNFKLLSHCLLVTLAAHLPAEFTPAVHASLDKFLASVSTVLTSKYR
T1 sequence (P68871 2-147): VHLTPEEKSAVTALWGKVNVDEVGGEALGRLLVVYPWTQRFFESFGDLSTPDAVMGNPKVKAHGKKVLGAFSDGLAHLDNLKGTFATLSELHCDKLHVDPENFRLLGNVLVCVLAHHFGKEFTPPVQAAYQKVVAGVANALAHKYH
T1 sequence (P00738 19-160 partner): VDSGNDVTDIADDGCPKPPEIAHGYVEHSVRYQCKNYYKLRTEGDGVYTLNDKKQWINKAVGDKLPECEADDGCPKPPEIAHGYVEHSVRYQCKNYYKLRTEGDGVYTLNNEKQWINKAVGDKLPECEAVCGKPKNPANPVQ
T1 sequence (P00738 162-406 partner): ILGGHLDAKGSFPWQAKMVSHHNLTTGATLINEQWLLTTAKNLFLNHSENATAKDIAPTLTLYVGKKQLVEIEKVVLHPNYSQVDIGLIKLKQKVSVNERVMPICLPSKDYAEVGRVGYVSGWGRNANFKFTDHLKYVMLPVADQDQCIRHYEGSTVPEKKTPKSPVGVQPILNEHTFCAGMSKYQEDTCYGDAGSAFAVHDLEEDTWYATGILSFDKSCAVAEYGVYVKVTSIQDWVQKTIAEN

- % increase in peroxidase activity (CLmax) at 14 μg/mL: ~ 16%
SMILES: CC1(C)S[C@@H]2[C@H](NC(=O)[C@H](N)c3ccccc3)C(=O)N2[C@H]1C(=O)O [ampicillin]
